According to US9353101B2 (Merck Sharp & Dohme Corp., priority 2012, dated 2016):

Columns and labels:
[1] = cited from earlier work
[2] = patients given torcetrapib and atorvastatin concomitantly compared with atorvastatin alone; cited from earlier work
CETP [3] = target: T1, CETP (Homo sapiens (Human), UniProt P11597); assay: Scintillation Proximity Assay (SPA) for CETP Activity; format: biochemical; settings: 15 nM CETP, biotinylated LDL, 3H-cholesterol ester HDL; read-out: SPA IC50 (CETP Inhibition)
Experimental: Protocol: Scintillation Proximity Assay (SPA) for CETP Activity
First, low density lipoprotein (LDL) (Meridian) was biotinylated by incubating LDL with biotin for 1 hour on ice, after which it was dialyzed to remove free biotin. Then compounds at varying concentrations were incubated with 15 nM CETP (reagent production group, In Vitro Pharmacology, MRL Rahway) and 50 ug/ml of the biotinylated LDL in 50 mM HEPES, 150 mM NaCl, pH 7.4, for 1 hour at 37° C. The reaction was started by adding ^3H-cholesterol ester high density lipoprotein (HDL) (American Radiochemicals Corp) at a concentration of ˜0.6 nM. The reaction proceeded for 2 hours at 37° C., after which time it was quenched by the addition of 12% acetic acid. PVT streptavadin-coated scintillation proximity beads, which had been brought to room temperature, were then added at a concentration of 4 mg/ml. The assay was then mixed and counted after one half hour in a Microbeta plate reader.
Target sequence in this assay (P11597 18-493): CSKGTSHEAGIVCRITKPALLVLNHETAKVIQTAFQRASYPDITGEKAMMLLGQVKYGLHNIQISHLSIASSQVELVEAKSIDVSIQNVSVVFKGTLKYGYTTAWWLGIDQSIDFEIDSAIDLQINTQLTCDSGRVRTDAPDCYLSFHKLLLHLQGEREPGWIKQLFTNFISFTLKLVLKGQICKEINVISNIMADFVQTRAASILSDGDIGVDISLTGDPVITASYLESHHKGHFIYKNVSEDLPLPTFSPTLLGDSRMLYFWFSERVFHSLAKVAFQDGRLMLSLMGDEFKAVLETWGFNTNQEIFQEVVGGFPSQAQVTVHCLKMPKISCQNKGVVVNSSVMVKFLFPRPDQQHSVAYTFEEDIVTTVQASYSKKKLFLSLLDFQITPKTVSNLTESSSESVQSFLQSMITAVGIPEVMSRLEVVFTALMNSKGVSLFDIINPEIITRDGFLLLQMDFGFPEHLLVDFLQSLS

CETP [4] = target: T1, CETP; assay: In vitro radioactive assay of CETP-catalyzed CE and TG transfer (RTA assay), 95% human serum; format: biochemical; settings: RTA assay in 95% human serum; read-out: RTA IC50 (CETP Inhibition)
Target sequence in this assay (P11597 18-493 limits assumed): as the sequence (P11597 18-493) above

[5] = patients, anacetrapib with baseline statin therapy compared with just a statin

SMILES	IC50 (CETP [3])	also measured
COc1cc(F)c(C(C)C)cc1-c1ccc(C(F)(F)F)cc1CN1C(=O)O[C@H](c2cc(C(F)(F)F)cc(C(F)(F)F)c2)[C@@H]1C [anacetrapib]	–	increase in mortality ([1]; patients treated with anacetrapib): unlikely; decrease of LDL-C [1, 5]: 40%; increase of HDL-C [1, 5]: 138%
CCOC(=O)N1c2ccc(C(F)(F)F)cc2[C@@H](N(Cc2cc(C(F)(F)F)cc(C(F)(F)F)c2)C(=O)OC)C[C@H]1CC [torcetrapib]	–	incidence of mortality [2]: higher incidence of mortality
COc1ncc(C(C)C)cc1-c1cnc(N2CCOCC2)nc1CN1C(=O)O[C@H](c2cc(C(F)(F)F)cc(C(F)(F)F)c2)[C@@H]1C [Example 15, (4S,5R)-5-[3,5-Bis(trifluoromethyl)phenyl]-3-{[5-(5-isopropyl-2-methoxypyridin-3-yl)-2-(morpholin-4-yl)pyrimidin-4-yl]methyl}-4-methyl-1,3-oxazolidin-2-one]	229 nM	–
COc1ncc(Cl)cc1-c1cnc(N2CC(F)C2)nc1CN1C(=O)O[C@H](c2cc(F)cc(F)c2)[C@@H]1C [Example 13, (4S,5R)-3-{[5-(5-Chloro-2-methoxypyridin-3-yl)-2-(3-fluoroazetidin-1-yl)pyrimidin-4-yl]methyl}-5-(3,5-difluorophenyl)-4-methyl-1,3-oxazolidin-2-one]	728 nM	–
COc1ncc(Cl)cc1-c1cnc(N2CCOCC2)nc1CN1C(=O)O[C@H](c2cc(C(F)(F)F)cc(C(F)(F)F)c2)[C@@H]1C [Example 11, (4S,5R)-5-[3,5-Bis(trifluoromethyl)phenyl]-3-{[5-(5-chloro-2-methoxypyridin-3-yl)-2-(morpholin-4-yl)pyrimidin-4-yl]methyl}-4-methyl-1,3-oxazolidin-2-one]	671 nM	–
COc1ncc(-c2cnn(C)c2)cc1-c1cnc(N2CC(F)C2)nc1CN1C(=O)O[C@H](c2cc(C(F)(F)F)cc(C(F)(F)F)c2)[C@@H]1C [Example 4]	137 nM	–
COc1ncc(C2CC2)cc1-c1cnc(N2CCOCC2)nc1CN1C(=O)O[C@H](c2cc(C(F)(F)F)cc(C(F)(F)F)c2)[C@@H]1C [Example 12, (4S,5R)-5-(3,5-Bis(trifluoromethyl)phenyl)-3-((5-(5-cyclopropyl-2-methoxypyridin-3-yl)-2-morpholinopyrimidin-4-yl)methyl)-4-methyloxazolidin-2-one]	530 nM	–
COc1ncc(C2CC2)cc1-c1cnc(N2CC(F)C2)nc1CN1C(=O)O[C@H](c2cc(C(F)(F)F)cc(C(F)(F)F)c2)[C@@H]1C [Example 5]	34 nM	–
COc1ncc(C(C)C)cc1-c1cnc(N2CC(F)C2)nc1CN1C(=O)O[C@H](c2cc(C(F)(F)F)cc(C(F)(F)F)c2)[C@@H]1C [Example 2, (4S,5R)-5-[3,5-Bis(trifluoromethyl)phenyl]-3-{[2-(3-fluoroazetidin-1-yl)-5-(5-isopropyl-2-methoxypyridin-3-yl)pyrimidin-4-yl]methyl}-4-methyl-1,3-oxazolidin-2-one]	11 nM	–
COc1ncc(-c2c(C)cc(-c3n[nH]c(=O)o3)cc2C)cc1-c1cnc(N2CC(F)C2)nc1CN1C(=O)O[C@H](c2cc(C(F)(F)F)cc(C(F)(F)F)c2)[C@@H]1C [Example 33, 5-(4-{5-[4-({(4S,5R)-5-[3,5-Bis(trifluoromethyl)phenyl]-4-methyl-2-oxo-1,3-oxazolidin-3-yl}methyl)-2-(3-fluoroazetidin-1-yl)pyrimidin-5-yl]-6-methoxypyridin-3-yl}-3,5-dimethylphenyl)-1,3,4-oxadiazol-2(3H)-one]	–	IC50 (CETP [4]): 8 nM
COc1ncc(-c2ccc(-c3n[nH]c(=O)o3)cc2C)cc1-c1cnc(N2CCOCC2)nc1CN1C(=O)O[C@H](c2cc(C(F)(F)F)cc(C(F)(F)F)c2)[C@@H]1C [Example 40, 5-(4-{5-[4-({(4S,5R)-5-[3,5-Bis(trifluoromethyl)phenyl]-4-methyl-2-oxo-1,3-oxazolidin-3-yl}methyl)-2-(morpholin-4-yl)pyrimidin-5-yl]-6-methoxypyridin-3-yl}-3-methylphenyl)-1,3,4-oxadiazol-2(3H)-one]	–	IC50 (CETP [4]): 29 nM
COc1ncc(-c2c(C)n[nH]c2C)cc1-c1cnc(N2CCCC2)nc1CN1C(=O)O[C@H](c2cc(C(F)(F)F)cc(C(F)(F)F)c2)[C@@H]1C [Example 25]	–	IC50 (CETP [4]): 20 nM
